Laboratory results: US8563738B2, “Ligands for copper-catalyzed azide-alkyne cycloaddition reactions” (The Scripps Research Institute, priority 2007, dated 2013)
“Also recorded” adds a separate entry of the source.

What was measured:
[1] = Ligand screening by reaction calorimetry (peak reaction power); design: key to calorimetry ligand category: reactions that failed to produce a signal in the calorimeter were classified as identifying “inactive” ligands; moderate: give observable, but not very strong, calorimetry signals; settings: 65° C.
Text: Reaction calorimetry was used to evaluate the relative merits of various ligands under practical conditions of organic synthesis, e.g., involving high concentrations of azide and alkyne reagents and low loadings of catalyst. After correction for instrumental heat transfer parameters, thermograms provide a direct real-time measure of reaction rate (power output); integration gives the overall time-vs.-completion curve. […] All such measurements were made in the same 4:1 DMSO:aqueous solvent as before, but at 65° C. rather than room temperature, in order to keep the product triazole in solution at the higher concentrations used.
Calorimetry was performed in an Omnical INSIGHT® 10-channel reaction calorimeter using 40 mL glass vials. In a typical run all the reaction components but one were introduced into the vials inside an inert atmosphere glovebox, and vials were sealed with septum caps. The last reaction component to be added was placed in a Hamilton gastight syringe. The vials and syringes were then allowed to equilibrate inside the preheated instrument (65° C.) for 30 minutes. The reaction was started in all vials by depressing all of the syringes simultaneously. Two vials out of ten were charged only with solvent to obtain readings allowing for compensation for the heat of mixing. The thermograms registered in these two channels upon addition of the last component were used to construct the baseline for the other 8 channels.
Since heat is not transferred to the instrument sensor instantaneously, the thermogram registered by the instrument is dependent on the characteristics of the instrument and reaction vessel. Correction for these extraneous factors must be applied to the recorded thermograms to obtain instrument-independent data (Rosner, T.; et al. J. Am. Chem. Soc. 2001, 123, 1848-1855; Liu, J.-S.; et al. Thermochimica Acta 1994, 236, 113-122). The appropriate dynamic correction function is built into the instrument operating software. Use of vendor supplied software produces the same result as manual correction.
By the same token, catalysts such as Cu.1 that give observable, but not very strong, calorimetry signals cannot be fully analyzed by converting thermograms to completion curves, because a significant amount of the total energy output is lost below the detection threshold of the instrument. TBTA (1) falls into this category, classified as “moderate” ligands. […] However, peak power values (i.e., maximum reaction rate) provided a reproducible relative measure of relative catalytic efficiency.
Ligands were screened under the following conditions: 250 mM benzyl azide, 454 mM phenylacetylene, 2 mM CuSO4, 4 mM ligand, 25 mM sodium ascorbate. Phenylacetylene was the last component added. Initial screening was performed with at least two independent trials for each ligand. Candidates showing promising activity were then examined with at least three independent trials to obtain reliable estimations of experimental error.

[2] = Second-order rate constants of CuAAC reaction by LC-MS of quenched aliquots; settings: 4:1 DMSO:buffer, Tris buffer over a standard range of concentrations

c1ccc(Cn2cc(CN(Cc3cn(Cc4ccccc4)nn3)Cc3cn(Cc4ccccc4)nn3)nn2)cc1 [TBTA (1), tris((1-benzyl-1H-1,2,3-triazol-4-yl)methyl)amine, reference compound]
calorimetry ligand category ([1]; 250 mM benzyl azide, 454 mM phenylacetylene, 2 mM CuSO4, 4 mM ligand, 25 mM sodium ascorbate): moderate
relative catalytic activity by calorimetry ([1]; high reactant concentrations, 1% Cu, 4:1 DMSO:aqueous): sluggish catalyst compared to many of the others tested; also recorded: lower half of the ligands tested
effect of Tris buffer on rate [2]: slowed significantly
